Literature values in patent publication US8260406B2, “System and method for analyzing complex curvature of ECG curves” (Aalborg Universitet, priority 2006, dated 2012).

System: cardiac repolarization (T-wave) in healthy subjects
Conditions: 30 min after sotalol administration; increase; p<0.05; occurring prior to QT prolongation; PCA of ECG Holter recordings

CC(C)NCC(O)c1ccc(NS(C)(=O)=O)cc1 (stereo not shown) [sotalol]
turbulence of repolarization velocity increased by: 9.02%
